{"source": "patent US12310975B2", "about": "“Modulators of BCL6 proteolysis and associated methods of use” (Arvinas Operations, Inc., priority 2019, dated 2025)"}
{"target": "BCL6 (Homo sapiens (Human), UniProt P41182)", "test": "Immunofluorescence high content imaging of BCL6 degradation in T47D cells", "assay_type": "cell-based", "settings": "class symbols A-D, read-out: EC50 (nM)*", "outline": "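BCL6 loss was quantified by high-content imaging (10×, 4 fields/well) after PFA fixation and anti-BCL6/Alexa-488 staining with Hoechst nuclear and CellMask counterstains. Compounds were applied for 3 days to T47D breast cancer cells in RPMI-10% FBS, 11 points, 3-fold steps, top 0.1 or 1 μM.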", "units": {"DC50": "nM"}}
{"molecule": "CNC(=O)COc1cc2cc(Nc3nc(N4CCC(c5cn(CCOCCOCCOCCOCCOCC(=O)N[C@H](C(=O)N6C[C@H](O)C[C@H]6C(=O)N[C@@H](C)c6ccc(-c7scnc7C)cc6)C(C)(C)C)nn5)CC4)ncc3Cl)ccc2n(C)c1=O", "note": "[compound 117, (2S,4R)-1-((S)-2-(tert-butyl)-20-(4-(1-(5-chloro-4-((1-methyl-3-(2-(methylamino)-2-oxoethoxy)-2-oxo-1,2-dihydroquinolin-6-yl)amino)pyrimidin-2-yl)piperidin-4-yl)-1H-1,2,3-triazol-1-yl)-4-oxo-6,9,12,15,18-pentaoxa-3-azaicosanoyl)-4-hydroxy-N-((S)-1-(4-(4-methylthiazol-5-yl)phenyl)ethyl)pyrrolidine-2-carboxamide]", "DC50": "10 to 50"}
{"molecule": "CNC(=O)COc1cc2cc(Nc3nc(N4CCC(OCc5ccc(OCCOCCOCCOc6ccc7c(c6)CN(C6CCC(=O)NC6=O)C7=O)cc5)CC4)ncc3Cl)ccc2n(C)c1=O", "note": "(stereo not shown) [compound 118, 2-((6-((5-chloro-2-(4-((4-(2-(2-(2-((2-(2,6-dioxopiperidin-3-yl)-1-oxoisoindolin-5-yl)oxy)ethoxy)ethoxy)ethoxy)benzyl)oxy)piperidin-1-yl)pyrimidin-4-yl)amino)-1-methyl-2-oxo-1,2-dihydroquinolin-3-yl)oxy)-N-methylacetamide]", "DC50": "50 to 100"}
{"molecule": "CNC(=O)COc1cc2cc(Nc3nc(N4CCC(c5cn(CCOCCOCCOc6ccc7c(c6)C(=O)N(C6CCC(=O)NC6=O)C7=O)nn5)CC4)ncc3Cl)ccc2n(C)c1=O", "note": "(stereo not shown) [compound 120, 2-((6-((5-chloro-2-(4-(1-(2-(2-(2-((2-(2,6-dioxopiperidin-3-yl)-1,3-dioxoisoindolin-5-yl)oxy)ethoxy)ethoxy)ethyl)-1H-1,2,3-triazol-4-yl)piperidin-1-yl)pyrimidin-4-yl)amino)-1-methyl-2-oxo-1,2-dihydroquinolin-3-yl)oxy)-N-methylacetamide]", "DC50": "50 to 100"}
{"molecule": "CNC(=O)COc1cc2cc(Nc3nc(N4CCC(c5cn(CCOCCOCCOCCOCCOc6ccc7c(c6)C(=O)N(C6CCC(=O)NC6=O)C7=O)nn5)CC4)ncc3Cl)ccc2n(C)c1=O", "note": "(stereo not shown) [compound 121, 2-((6-((5-chloro-2-(4-(1-(14-((2-(2,6-dioxopiperidin-3-yl)-1,3-dioxoisoindolin-5-yl)oxy)-3,6,9,12-tetraoxatetradecyl)-1H-1,2,3-triazol-4-yl)piperidin-1-yl)pyrimidin-4-yl)amino)-1-methyl-2-oxo-1,2-dihydroquinolin-3-yl)oxy)-N-methylacetamide]", "DC50": "50 to 100"}
{"molecule": "CNC(=O)COc1cc2cc(Nc3nc(N4CCC(Cc5cn(CCOCC(=O)N[C@H](C(=O)N6C[C@H](O)C[C@H]6C(=O)N[C@@H](C)c6ccc(-c7scnc7C)cc6)C(C)(C)C)nn5)CC4)ncc3Cl)ccc2n(C)c1=O", "note": "[compound 122, (2S,4R)-1-((S)-2-(2-(2-(4-((1-(5-chloro-4-((1-methyl-3-(2-(methylamino)-2-oxoethoxy)-2-oxo-1,2-dihydroquinolin-6-yl)amino)pyrimidin-2-yl)piperidin-4-yl)methyl)-1H-1,2,3-triazol-1-yl)ethoxy)acetamido)-3,3-dimethylbutanoyl)-4-hydroxy-N-((S)-1-(4-(4-methylthiazol-5-yl)phenyl)ethyl)pyrrolidine-2-carboxamide]", "DC50": "50 to 100"}
{"molecule": "CNC(=O)COc1cc2cc(Nc3nc(N4CCC(Cc5cn(CCOCCOCCOCC(=O)N[C@H](C(=O)N6C[C@H](O)C[C@H]6C(=O)N[C@@H](C)c6ccc(-c7scnc7C)cc6)C(C)(C)C)nn5)CC4)ncc3Cl)ccc2n(C)c1=O", "note": "[compound 123, (2S,4R)-1-((S)-2-(tert-butyl)-14-(4-((1-(5-chloro-4-((1-methyl-3-(2-(methylamino)-2-oxoethoxy)-2-oxo-1,2-dihydroquinolin-6-yl)amino)pyrimidin-2-yl)piperidin-4-yl)methyl)-1H-1,2,3-triazol-1-yl)-4-oxo-6,9,12-trioxa-3-azatetradecanoyl)-4-hydroxy-N-((S)-1-(4-(4-methylthiazol-5-yl)phenyl)ethyl)pyrrolidine-2-carboxamide]", "DC50": "50 to 100"}
{"molecule": "CNC(=O)COc1cc2cc(Nc3nc(N4CCC(Cc5cn(CCOCCOCCOCCOCCOCC(=O)N[C@H](C(=O)N6C[C@H](O)C[C@H]6C(=O)N[C@@H](C)c6ccc(-c7scnc7C)cc6)C(C)(C)C)nn5)CC4)ncc3Cl)ccc2n(C)c1=O", "note": "[compound 124, (2S,4R)-1-((S)-2-(tert-butyl)-20-(4-((1-(5-chloro-4-((1-methyl-3-(2-(methylamino)-2-oxoethoxy)-2-oxo-1,2-dihydroquinolin-6-yl)amino)pyrimidin-2-yl)piperidin-4-yl)methyl)-1H-1,2,3-triazol-1-yl)-4-oxo-6,9,12,15,18-pentaoxa-3-azaicosanoyl)-4-hydroxy-N-((S)-1-(4-(4-methylthiazol-5-yl)phenyl)ethyl)pyrrolidine-2-carboxamide]", "DC50": "50 to 100"}
{"molecule": "CNC(=O)COc1cc2cc(Nc3nc(N4CCC(c5ccc(OCCCOCCCOCCOc6ccc7c(c6)CN(C6CCC(=O)NC6=O)C7=O)cc5)CC4)ncc3Cl)ccc2n(C)c1=O", "note": "(stereo not shown) [compound 125, 2-((6-((5-chloro-2-(4-(4-(3-(3-(2-((2-(2,6-dioxopiperidin-3-yl)-1-oxoisoindolin-5-yl)oxy)ethoxy)propoxy)propoxy)phenyl)piperidin-1-yl)pyrimidin-4-yl)amino)-1-methyl-2-oxo-1,2-dihydroquinolin-3-yl)oxy)-N-methylacetamide]", "DC50": "> 100"}
{"molecule": "CNC(=O)COc1cc2cc(Nc3nc(N4CCC(OCCOCCOCCOCCc5cccc(Oc6ccc7c(c6)CN(C6CCC(=O)NC6=O)C7=O)c5)CC4)ncc3Cl)ccc2n(C)c1=O", "note": "(stereo not shown) [compound 126, 2-((6-((5-chloro-2-(4-(2-(2-(2-(3-((2-(2,6-dioxopiperidin-3-yl)-1-oxoisoindolin-5-yl)oxy)phenethoxy)ethoxy)ethoxy)ethoxy)piperidin-1-yl)pyrimidin-4-yl)amino)-1-methyl-2-oxo-1,2-dihydroquinolin-3-yl)oxy)-N-methylacetamide]", "DC50": "> 100"}
{"molecule": "CNC(=O)COc1cc2cc(Nc3nc(N4CCC(c5cn(CCOCCOCCOCCOc6ccc7c(c6)C(=O)N(C6CCC(=O)NC6=O)C7=O)nn5)CC4)ncc3Cl)ccc2n(C)c1=O", "note": "(stereo not shown) [compound 129, 2-((6-((5-chloro-2-(4-(1-(2-(2-(2-(2-((2-(2,6-dioxopiperidin-3-yl)-1,3-dioxoisoindolin-5-yl)oxy)ethoxy)ethoxy)ethoxy)ethyl)-1H-1,2,3-triazol-4-yl)piperidin-1-yl)pyrimidin-4-yl)amino)-1-methyl-2-oxo-1,2-dihydroquinolin-3-yl)oxy)-N-methylacetamide]", "DC50": "> 100"}
{"molecule": "CNC(=O)COc1cc2cc(Nc3nc(N4CCC(Cc5cn(CCOCCOCCOc6ccc7c(c6)C(=O)N(C6CCC(=O)NC6=O)C7=O)nn5)CC4)ncc3Cl)ccc2n(C)c1=O", "note": "(stereo not shown) [compound 130, 2-((6-((5-chloro-2-(4-((1-(2-(2-(2-((2-(2,6-dioxopiperidin-3-yl)-1,3-dioxoisoindolin-5-yl)oxy)ethoxy)ethoxy)ethyl)-1H-1,2,3-triazol-4-yl)methyl)piperidin-1-yl)pyrimidin-4-yl)amino)-1-methyl-2-oxo-1,2-dihydroquinolin-3-yl)oxy)-N-methylacetamide]", "DC50": "> 100"}
{"molecule": "CNC(=O)COc1cc2cc(Nc3nc(N4CCC(Cc5cn(CCOCCOCCOCCOc6ccc7c(c6)C(=O)N(C6CCC(=O)NC6=O)C7=O)nn5)CC4)ncc3Cl)ccc2n(C)c1=O", "note": "(stereo not shown) [compound 131, 2-((6-((5-chloro-2-(4-((1-(2-(2-(2-(2-((2-(2,6-dioxopiperidin-3-yl)-1,3-dioxoisoindolin-5-yl)oxy)ethoxy)ethoxy)ethoxy)ethyl)-1H-1,2,3-triazol-4-yl)methyl)piperidin-1-yl)pyrimidin-4-yl)amino)-1-methyl-2-oxo-1,2-dihydroquinolin-3-yl)oxy)-N-methylacetamide]", "DC50": "> 100"}
{"molecule": "CNC(=O)COc1cc2cc(Nc3nc(N4CCC(Cc5cn(CCOCCOCCOCCOCCOc6ccc7c(c6)C(=O)N(C6CCC(=O)NC6=O)C7=O)nn5)CC4)ncc3Cl)ccc2n(C)c1=O", "note": "(stereo not shown) [compound 132, 2-((6-((5-chloro-2-(4-((1-(14-((2-(2,6-dioxopiperidin-3-yl)-1,3-dioxoisoindolin-5-yl)oxy)-3,6,9,12-tetraoxatetradecyl)-1H-1,2,3-triazol-4-yl)methyl)piperidin-1-yl)pyrimidin-4-yl)amino)-1-methyl-2-oxo-1,2-dihydroquinolin-3-yl)oxy)-N-methylacetamide]", "DC50": "> 100"}
{"molecule": "CNC(=O)COc1cc2cc(Nc3nc(N4CCC(Cc5cn(CCOCCOCC(=O)N[C@H](C(=O)N6C[C@H](O)C[C@H]6C(=O)N[C@@H](C)c6ccc(-c7scnc7C)cc6)C(C)(C)C)nn5)CC4)ncc3Cl)ccc2n(C)c1=O", "note": "[compound 133, (2S,4R)-1-((S)-2-(2-(2-(2-(4-((1-(5-chloro-4-((1-methyl-3-(2-(methylamino)-2-oxoethoxy)-2-oxo-1,2-dihydroquinolin-6-yl)amino)pyrimidin-2-yl)piperidin-4-yl)methyl)-1H-1,2,3-triazol-1-yl)ethoxy)ethoxy)acetamido)-3,3-dimethylbutanoyl)-4-hydroxy-N-((S)-1-(4-(4-methylthiazol-5-yl)phenyl)ethyl)pyrrolidine-2-carboxamide]", "DC50": "> 100"}
{"molecule": "CNC(=O)COc1cc2cc(Nc3nc(N4CCC(OCCOCCOCCOCCOc5ccccc5Oc5ccc6c(c5)CN(C5CCC(=O)NC5=O)C6=O)CC4)ncc3Cl)ccc2n(C)c1=O", "note": "(stereo not shown) [compound 134, 2-((6-((5-chloro-2-(4-(2-(2-(2-(2-(2-((2-(2,6-dioxopiperidin-3-yl)-1-oxoisoindolin-5-yl)oxy)phenoxy)ethoxy)ethoxy)ethoxy)ethoxy)piperidin-1-yl)pyrimidin-4-yl)amino)-1-methyl-2-oxo-1,2-dihydroquinolin-3-yl)oxy)-N-methylacetamide]", "DC50": "> 100"}
{"molecule": "CNC(=O)COc1cc2cc(Nc3nc(N4CCC(OCCOCCOCCOCc5ccc(Oc6ccc7c(c6)CN(C6CCC(=O)NC6=O)C7=O)cc5)CC4)ncc3Cl)ccc2n(C)c1=O", "note": "(stereo not shown) [compound 135, 2-((6-((5-chloro-2-(4-(2-(2-(2-((4-((2-(2,6-dioxopiperidin-3-yl)-1-oxoisoindolin-5-yl)oxy)benzyl)oxy)ethoxy)ethoxy)ethoxy)piperidin-1-yl)pyrimidin-4-yl)amino)-1-methyl-2-oxo-1,2-dihydroquinolin-3-yl)oxy)-N-methylacetamide]", "DC50": "> 100"}
